A word on the kinetic solubility: it is solubility judged after dilution from a stock solution rather than from solid.

The structures appear in SMILES notation. In brackets after ≈: the same amount, converted by molar mass. Bounds are passed on as bounds.

The conditions of this series: buffer; pH 7.4; 200.0 µM.
The molecule `COc1ccc(OC)c(NC(=O)CS(=O)(=O)Cc2ccccc2)c1` gave a kinetic solubility of 3.1 µg/mL (≈ 8.87 µM).
Next, `O=C(O)CN1C(=O)C(=O)N(Cc2ccccc2F)C1=O`: > 42 µg/mL.
In turn, `O=C(CCn1c(=O)oc2ccccc21)NCCCN1CCOCC1` returned a kinetic solubility of 43.2 µg/mL (≈ 130 µM).
Consider `Cc1cccc(C)c1NC(=O)C1CCN(S(C)(=O)=O)CC1`, for which the kinetic solubility was > 46.6 µg/mL.
Consider `COC(=O)[C@@H](N)CS.Cl`, for which the kinetic solubility was > 25.7 µg/mL.
`COc1ccc(NC(=S)N2CCC(Cc3ccccc3)CC2)cc1OC`: the solubility (kinetic) stood at 2.4 µg/mL (≈ 6.48 µM).
The molecule `Cc1ccc2oc(C(=O)N3CCCCCC3)c(C)c2c1` registered a solubility (kinetic) of 16.6 µg/mL (≈ 61.2 µM).
With `CCOC(=O)N1CCN(c2nc(-c3ccccc3)c3ccccc3n2)CC1`, the kinetic solubility is < 0.2 µg/mL.
Molecule `CS(=O)(=O)c1ccc(NS(=O)(=O)c2ccc(Cl)c(C(=O)NC3=NCCS3)c2)cc1` had a solubility (kinetic) of 24 µg/mL (≈ 50.6 µM).
To `CCOc1ccccc1NC(=O)CN1C(=O)COc2ccccc21` belongs 3.6 µg/mL (≈ 11 µM).
Next, `COc1cccc(NC(=O)C2CCCO2)c1` (configuration not stated): 30.5 µg/mL (≈ 138 µM); `Cc1cc(=O)c2cc(NC(=O)c3ccccc3Cl)ccc2[nH]1`: 9.4 µg/mL (≈ 30.1 µM); `Cc1cc2c(sc3c(C)ccc(C)c32)c(C)n1.Cl`: < 0.6 µg/mL.
Take `O=S(=O)(NC(=S)c1ccccc1)c1ccc(Cl)cc1`: the kinetic solubility was > 46.8 µg/mL.
As to `COc1ccc(Cl)cc1C(=O)NCCCn1ccnc1`, the solubility (kinetic) was > 44.1 µg/mL.
Take `O=C(COC(=O)C1=Cc2ccccc2OC1)NCc1ccco1`: the solubility (kinetic) amounted to 5.6 µg/mL (≈ 17.9 µM).
For the molecule `O=C(O)c1ccc(S(=O)(=O)N2CCCc3ccccc32)cc1`, the kinetic solubility was > 47.6 µg/mL.
With `Cc1ccc(NC(=O)c2cc(=O)[nH]c3ccccc23)cc1`, the kinetic solubility worked out at 1.6 µg/mL (≈ 5.75 µM).
For the molecule `COC(=O)C1CC(=O)N(Cc2ccccc2)C1` (configuration not stated), the kinetic solubility is > 35 µg/mL.
For the molecule `COc1ccc(CCNC(=O)COC(=O)c2ccccn2)cc1`, the kinetic solubility was > 47.2 µg/mL.
Take `Cc1ccc(S(=O)(=O)c2c(C)cc(C)[nH]c2=O)c(C)c1`: the kinetic solubility is > 43.7 µg/mL.
As for `CCOc1ccc(S(=O)(=O)N(C)c2ccc(OCC(=O)NCC3CCCCC3)cc2)cc1`, the kinetic solubility was 3.1 µg/mL (≈ 6.73 µM).
Next, `O=C(O)CC(c1ccc(Cl)cc1)N1Cc2ccccc2C1=O` (configuration not stated): > 47.4 µg/mL.
As to `CCOc1ccc(NC(=O)[C@@H](NC(=O)c2ccco2)C(C)C)cc1`, the kinetic solubility was > 49.6 µg/mL.
To `O=C(C1=C(O)C(=O)N(c2ncccn2)C1c1ccc(F)cc1)c1ccco1` (configuration not stated) belongs 53.1 µg/mL (≈ 145 µM); to `CCOc1ccc(NC(=O)c2nc(SCC)ncc2Cl)cc1`, < 0.2 µg/mL.
Turning to `COC(=O)c1ccccc1NC(=O)Cn1cnc([N+](=O)[O-])c1`, the kinetic solubility is > 45.6 µg/mL.
Next, `S=C1SCN(Cc2ccco2)CN1Cc1ccco1`: > 44.2 µg/mL; `Cl.O=C(NC12CC3CC(CC(C3)C1)C2)OC1CN2CCC1CC2` (configuration not stated): 47.7 µg/mL; `CN(C)c1ncc(S(=O)(=O)c2ccccc2)c(=O)[nH]1`: > 41.9 µg/mL.
Take `O=C(Nc1ccc(F)cc1)C1CC(=O)N(Cc2ccco2)C1` (configuration not stated): the kinetic solubility is > 45.3 µg/mL.
`O=C(CN1CCCC1)Nc1ccccc1C(=O)c1ccccc1` displayed a solubility (kinetic) of 44 µg/mL (≈ 143 µM).
Regarding `Cc1ccnc2nc(NC(=O)c3ccco3)nn12`, the kinetic solubility is > 36.5 µg/mL.
Regarding `O=C(N/N=C/c1cccnc1)c1cccs1`, the kinetic solubility was > 34.7 µg/mL.
In the case of `O=S(=O)(NCc1cccnc1)c1ccc2ccccc2c1`, the kinetic solubility worked out at 41.3 µg/mL (≈ 138 µM).
`COc1cccc(OC)c1C(=O)Nc1ccc(Br)c(C(=O)c2ccccc2)c1` came in with a kinetic solubility of 4.2 µg/mL (≈ 9.54 µM).
Turning to `Cc1nc(Nc2ccccc2O)c2oc3ccccc3c2n1`, the kinetic solubility was < 0.2 µg/mL.
Consider `CCOc1cc(C=O)ccc1OCCn1c([N+](=O)[O-])cnc1C`, for which the kinetic solubility came to 18.1 µg/mL (≈ 56.7 µM).
`O=c1[nH]c(CN2CCOCC2)nc2scc(-c3ccccc3)c12` returned a kinetic solubility of 23.9 µg/mL (≈ 73 µM).
Consider `COc1ccc(CCNC(=O)c2cc3ccccc3oc2=O)cc1`, for which the solubility (kinetic) is < 0.7 µg/mL.
As to `OCCCNc1ncnc2oc(-c3ccccc3)c(-c3ccccc3)c12`, the solubility (kinetic) worked out at 17.5 µg/mL (≈ 50.7 µM).
For the molecule `Cc1ccc(C(=O)NC(C)c2ccc(S(N)(=O)=O)cc2)s1` (configuration not stated), the kinetic solubility was > 48.7 µg/mL.
To `COc1ccc(/C(N)=N/O)c(OC)c1` belongs > 29.4 µg/mL; to `CC(C)CN(C(=O)CSc1nc2ccccc2[nH]1)C1CCS(=O)(=O)C1` (configuration not stated), > 57.2 µg/mL.
To `COc1cccc(CN2CCN(Cc3ccc(O)cc3)CC2CCO)c1` (configuration not stated) belongs 49.2 µg/mL (≈ 138 µM).
On to `Cc1noc(NS(=O)(=O)c2ccc(NS(=O)(=O)c3ccc(Cl)cc3)cc2)c1C`, for which the kinetic solubility is > 66.3 µg/mL.
For `O=C(COC(=O)/C=C/c1ccc(F)cc1)NC1CCCCCC1`, the kinetic solubility amounted to 3.7 µg/mL (≈ 11.6 µM).
Take `NC(=O)C[n+]1cccc(/C=N/O)c1.[Cl-]`: the solubility (kinetic) is > 32.3 µg/mL.
Next, `Cc1cccc(C(=O)OCC(=O)N2CCCCCC2)c1`: > 41.3 µg/mL.
Turning to `Cc1cccn2c(=O)nc(SCC(=O)NCc3ccco3)nc12`, the solubility (kinetic) is > 49.6 µg/mL.
`CCOC(=O)c1c2c3c(cccc3n(C)c1=O)C(=O)c1ccccc1-2` had a kinetic solubility of 2.6 µg/mL (≈ 7.8 µM).
For the molecule `O=CNCc1nc2ccccc2n1CCc1ccccc1`, the kinetic solubility is > 41.9 µg/mL.
